Laboratory results as given in article PMC12335474 (Communications Biology, 2025).

Key:
[1] = molecular target: MLCK (myosin light chain kinase, smooth muscle) (Homo sapiens, UniProt Q15746); assay: SPR; type: binding
[2] = molecular target: MLCK (myosin light chain kinase, smooth muscle) (Homo sapiens, UniProt Q15746, N1725A); assay: SPR; type: binding
Sequence of MLCK (myosin light chain kinase, smooth muscle) (Homo sapiens, UniProt Q15746, N1725A) (Q15746 923-1914 N1725A): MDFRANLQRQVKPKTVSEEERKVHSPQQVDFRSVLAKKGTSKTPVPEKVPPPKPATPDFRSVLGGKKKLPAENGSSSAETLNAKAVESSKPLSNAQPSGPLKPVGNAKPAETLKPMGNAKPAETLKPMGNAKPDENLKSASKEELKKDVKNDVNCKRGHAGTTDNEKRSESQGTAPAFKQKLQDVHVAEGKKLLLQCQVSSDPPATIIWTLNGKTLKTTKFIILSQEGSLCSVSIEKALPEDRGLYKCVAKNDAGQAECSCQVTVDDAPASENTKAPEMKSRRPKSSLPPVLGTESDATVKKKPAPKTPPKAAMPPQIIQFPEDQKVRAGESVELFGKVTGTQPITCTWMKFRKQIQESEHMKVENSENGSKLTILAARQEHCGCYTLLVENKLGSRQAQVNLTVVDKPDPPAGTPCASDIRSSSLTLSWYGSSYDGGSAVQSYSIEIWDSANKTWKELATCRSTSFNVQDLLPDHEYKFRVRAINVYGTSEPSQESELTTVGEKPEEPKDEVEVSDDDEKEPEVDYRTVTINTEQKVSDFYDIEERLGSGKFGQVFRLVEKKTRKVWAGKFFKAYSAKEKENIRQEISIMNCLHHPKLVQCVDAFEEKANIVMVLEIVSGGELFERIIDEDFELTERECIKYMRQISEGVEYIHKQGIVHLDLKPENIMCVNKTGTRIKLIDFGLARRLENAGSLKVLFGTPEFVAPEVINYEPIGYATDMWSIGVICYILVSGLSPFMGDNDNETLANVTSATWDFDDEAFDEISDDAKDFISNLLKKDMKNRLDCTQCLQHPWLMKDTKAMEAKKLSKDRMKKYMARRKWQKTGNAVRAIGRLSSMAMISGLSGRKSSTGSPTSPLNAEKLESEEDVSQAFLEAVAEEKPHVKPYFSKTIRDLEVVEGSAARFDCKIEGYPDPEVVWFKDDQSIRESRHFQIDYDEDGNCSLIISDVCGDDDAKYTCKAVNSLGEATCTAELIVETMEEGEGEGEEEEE

Sequence of MLCK (myosin light chain kinase, smooth muscle) (Homo sapiens, UniProt Q15746) (Q15746 whole entry): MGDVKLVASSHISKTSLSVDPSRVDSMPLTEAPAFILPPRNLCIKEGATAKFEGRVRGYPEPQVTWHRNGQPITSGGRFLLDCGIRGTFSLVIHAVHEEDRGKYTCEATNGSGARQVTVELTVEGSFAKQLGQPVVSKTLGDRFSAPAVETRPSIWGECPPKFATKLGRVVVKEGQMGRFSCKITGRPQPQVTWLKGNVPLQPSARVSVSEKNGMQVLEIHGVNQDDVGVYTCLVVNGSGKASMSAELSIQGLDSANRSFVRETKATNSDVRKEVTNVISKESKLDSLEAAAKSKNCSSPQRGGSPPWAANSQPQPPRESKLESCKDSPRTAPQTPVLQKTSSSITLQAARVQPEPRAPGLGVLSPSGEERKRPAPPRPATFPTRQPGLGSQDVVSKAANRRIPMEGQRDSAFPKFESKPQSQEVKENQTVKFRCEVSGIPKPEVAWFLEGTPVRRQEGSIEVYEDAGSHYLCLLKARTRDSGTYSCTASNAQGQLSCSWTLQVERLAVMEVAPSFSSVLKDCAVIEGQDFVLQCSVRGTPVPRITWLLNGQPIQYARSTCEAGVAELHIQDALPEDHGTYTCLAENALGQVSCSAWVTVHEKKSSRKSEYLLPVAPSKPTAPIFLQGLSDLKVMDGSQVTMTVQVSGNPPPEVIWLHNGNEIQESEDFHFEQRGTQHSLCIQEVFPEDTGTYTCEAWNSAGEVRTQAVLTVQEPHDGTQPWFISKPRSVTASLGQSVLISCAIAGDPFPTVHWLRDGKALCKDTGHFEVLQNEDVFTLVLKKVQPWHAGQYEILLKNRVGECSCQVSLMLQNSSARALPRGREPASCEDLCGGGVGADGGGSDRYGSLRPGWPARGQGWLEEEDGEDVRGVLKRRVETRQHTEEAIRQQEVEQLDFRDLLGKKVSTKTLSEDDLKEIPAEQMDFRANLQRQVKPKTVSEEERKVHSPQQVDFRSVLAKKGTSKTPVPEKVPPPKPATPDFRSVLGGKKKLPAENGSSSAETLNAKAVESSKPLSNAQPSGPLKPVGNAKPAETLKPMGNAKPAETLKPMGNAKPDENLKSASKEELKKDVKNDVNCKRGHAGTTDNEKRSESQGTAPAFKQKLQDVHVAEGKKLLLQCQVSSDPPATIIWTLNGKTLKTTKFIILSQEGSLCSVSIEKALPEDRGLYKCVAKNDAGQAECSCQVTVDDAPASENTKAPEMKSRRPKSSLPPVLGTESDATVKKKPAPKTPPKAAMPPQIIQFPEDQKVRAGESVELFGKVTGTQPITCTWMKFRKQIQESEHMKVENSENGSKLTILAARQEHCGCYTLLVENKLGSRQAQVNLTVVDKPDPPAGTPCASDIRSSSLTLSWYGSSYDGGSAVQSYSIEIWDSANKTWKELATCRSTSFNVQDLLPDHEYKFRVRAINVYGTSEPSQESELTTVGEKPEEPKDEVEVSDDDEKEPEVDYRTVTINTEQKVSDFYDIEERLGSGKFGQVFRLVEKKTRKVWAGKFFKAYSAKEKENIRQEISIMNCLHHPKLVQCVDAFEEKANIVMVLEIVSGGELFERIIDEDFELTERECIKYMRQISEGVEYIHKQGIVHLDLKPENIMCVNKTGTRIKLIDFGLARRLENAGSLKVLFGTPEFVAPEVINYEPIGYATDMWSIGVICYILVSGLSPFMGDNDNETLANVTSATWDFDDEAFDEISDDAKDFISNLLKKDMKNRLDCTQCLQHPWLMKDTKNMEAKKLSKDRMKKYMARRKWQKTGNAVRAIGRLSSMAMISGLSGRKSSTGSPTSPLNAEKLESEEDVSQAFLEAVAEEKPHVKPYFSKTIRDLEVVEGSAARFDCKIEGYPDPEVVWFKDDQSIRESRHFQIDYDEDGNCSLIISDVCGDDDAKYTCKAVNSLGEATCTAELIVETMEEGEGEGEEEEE

O=c1[nH]c(=O)c2[nH]c(=O)[nH]c2[nH]1 [UA, uric acid]
Kd [1]: 257 µM | Kd [2]: 312 µM
